The values below come from US6358946B1, “C-6 ring-substituted pyrido[1,2-a]benzimidazole derivatives useful in treating central nervous system disorders” (Ortho-McNeil Pharmaceutical, Inc., priority 1999, dated 2002).

Counter-ions that a name gives are not always drawn. Like-named read-outs stand apart in the source and are kept apart here. Where only a bound is given, the exact number is not on record here.

For data set [1], the system named is metrazol-induced clonic convulsions. Put plainly: Suppression of metrazol-induced convulsions in adult male mice. The format is in vivo, Male CD1 mice. Particulars: Mus musculus, block of clonic convulsions after s.c. CD90 dose of metrazol. As for the experimental part:
Assay to Determine the Suppression of Metrazol-Induced Convulsions in Adult Male Mice
Compounds of the invention were tested for their ability to reduce metrazol-induced convulsions in mice (Swinyard, E. A. J. Am. Pharm Assoc. 1949, 38, 201). Male CD1 mice, were fasted at least 16 hours, were divided into equal groups and test compounds or vehicle were administered parenterally. Water was not withheld except during the period of observations. At the time of suspected peak activity, anti-pentylenetetrazol (anti-metrazol) activity was evaluated by the subcutaneous administration of the CD90 dose of metrazol (the dose of metrazol was determined from the dose-response curve producing clonic convulsions in 90% of animals that received the corresponding vehicle for this experiment). Metrazol was dissolved in 0.9% sodium chloride solution, and its dose volume was 10 mL/kg. Animals were housed individually for observation of clonic convulsions, tonic convulsions and death for a period of 30 min. Test compounds that blocked the clonic seizure component of the convulsion in at least 50% of the animals were considered active. The biological assay was considered to be valid if the effects of a known anticonvulsant (positive control) were detected, within the same experiment. Activity was reported as percent reduction of clonic convulsions from the vehicle group. The ED50 values of active compounds were calculated by the method of probits (Finney, D. J. Probit Analysis, London: 1971, Cambridge University Press) and are listed in Table 1. […] Compounds active in this screen are considered active anticonvulsion/antiepileptic agents, as well as having potential anxiolytic activity. The data for the test compounds is listed in Table 1 as Met. for either PO (oral) or IP (parenteral) routes of administration.

Data set [2] concerns the target benzodiazepine site of the GABA-A receptor. Kind of data set: Benzodiazepine receptor binding assay (inhibition of 3H-flunitrazepam binding to membranes). Particulars: inhibition of 3H-flunitrazepam (ca. 3 nM) binding; over 10,000 = not active.
For data set [3], the system named is behavior suppressed by punishment (conflict). Kind of data set: Suppression of anxiety in the adult male rat (Vogel conflict test). The format is in vivo, Male rats. Particulars: PO (oral) administration, MED >10 = active dose not determined, read-out: Conf. PO (minimum effective dose, MED). As for the experimental part:
Assay to Measure the Suppression of Anxiety in the Adult Male Rat
The anxiolytic activity of selected compounds of the invention was assessed by determining their ability to release (disinhibit) behavior that had been suppressed by punishment (Vogel, J. R. et al. Psychopharmacology 1971, 21, 1). Male rats were deprived of water for 48 hrs and were deprived of food for 24 hrs prior to testing. After the first 24 hours of water deprivation, they were placed in the conflict chamber for a training period; wherein, they were allowed 200 unpunished licks from a bottle containing tap water. The experiment was run the next day. At the expected time of peak activity, the animals were placed in the chamber and allowed access to tap water. […] Their first lick initiates a 3-min test session. Subsequently, every 20th lick was punished by a 0.2-s shock delivered via the stainless-steel drinking-tube. Vehicle-treated control animals generally were willing to accept a median number of 3 to 8 shocks per test session. […] The Wilcoxon rank-sum test (Mann-Whitney U-test) was used to test for an increase (p<0.05, 1-tailed) in the median number of shocks in drug-treated groups, compared to a concurrently run vehicle-treated group. The biological assay is considered to be valid if the effects of a known anxiolytic (positive control) are detected, within the same experiment. A compound was considered active if there is a significant difference in the median number of shocks tolerated between the drug-treated group and the control group. The minimum effective doses (MED) for the active compounds of the invention are listed in Table 1 under the heading Conf., with PO indicating an oral route of administration. The MED was defined as the minimum dose of the drug-treatment as analyzed using the Wilcoxon rank-sum test (SAS; Statistical Analysis System, version 5.16). If the MED value is greater than 10, an active dose of the compound being tested had not been determined.

Setting [4] is: IP (parenteral) administration, read-out: Met. IP (ED50).
Where [5] appears, read: PO (oral) administration, read-out: Met. PO (ED50).

The term melting point denotes the temperature of the solid-liquid transition. Broadly, the ED50 is the dose at which the effect has come halfway, by size or by number of responders. What is called IC50 is the concentration that gives 50% inhibition. The low end stands for higher potency, the high end for lower potency.

As to `O=C1CCN2C(=C1C(=O)Nc1c(F)cccc1F)Nc1c(N3CCCCC3)cccc12` (as salt: hydrochloride) [Compound 10, Pyrido[1,2-a]benzimidazole-4-carboxamide, N-(2,6-difluorophenyl)-1,2,3,5-tetrahydro-3-oxo-6-(1-piperidinyl)-], the melting point lay within 240 to 241 °C.

For `O=C1CCN2C(=C1C(=O)Nc1c(F)cccc1F)Nc1c2cccc1-n1ccnc1` [Compound 1], the median effective dose (ED50) in data set [1] (setting [4]) is no more than 1 mg/kg; in data set [1] (setting [5]), roughly 10 mg/kg. In data set [2], this molecule had an IC50 of 0.66 nM.

For `O=C1CCN2C(=C1C(=O)Nc1ccccc1F)Nc1c2cccc1-n1ccnc1` [Compound 2, Pyrido[1,2-a]benzimidazole-4-carboxamide, N-2-fluorophenyl-1,2,3,5-tetrahydro-3-oxo-6-(1-imidazolyl)-], the minimal effective dose in data set [3] is greater than 10 mg/kg. The ED50 in data set [1] (setting [4]) is 1 mg/kg; in data set [1] (setting [5]), roughly 5 mg/kg. In data set [2], this molecule came in with an IC50 of 3.48 nM.

Regarding `O=C1CCN2C(=C1C(=O)Nc1ccccc1F)Nc1c(N3CCOCC3)cccc12` [Compound 3], the minimal effective dose in data set [3] is greater than 10 mg/kg. In addition, the 50% effective dose (ED50) is greater than 1 mg/kg in data set [1] (setting [4]) and 3 mg/kg in data set [1] (setting [5]). This molecule also displayed a half-inhibitory concentration (IC50) in data set [2] of 1.05 nM.

As for `O=C1CCN2C(=C1C(=O)Nc1c(F)cccc1F)Nc1c(N3CCOCC3)cccc12` [Compound 4], the minimal effective dose in data set [3] is roughly 0.1 mg/kg. In addition, the ED50 in data set [1] (setting [4]) was less than 1 mg/kg; in data set [1] (setting [5]) it was less than 3 mg/kg. The molecule also yielded an IC50 in data set [2] of 0.23 nM.

With `COc1ccccc1N1CCN(c2cccc3c2NC2=C(C(=O)Nc4c(F)cccc4F)C(=O)CCN23)CC1` [Compound 5], the minimal effective dose in data set [3] is greater than 10 mg/kg. The molecule further registered an IC50 in data set [2] of less than 100 nM.

With `COc1ccccc1N1CCN(c2cccc3c2NC2=C(C(=O)Nc4ccccc4F)C(=O)CCN23)CC1` [Compound 6], the minimal effective dose in data set [3] was greater than 10 mg/kg. This molecule also gave an IC50 in data set [2] of roughly 1000 nM.

Regarding `COc1ccc(NC(=O)C2=C3Nc4c(N5CCOCC5)cccc4N3CCC2=O)cc1` [Compound 7], in data set [3], the minimal effective dose stood at 0.1 mg/kg. The same molecule returned a half-inhibitory concentration (IC50) in data set [2] of 2.04 nM.

Take `COc1cccc(NC(=O)C2=C3Nc4c(N5CCOCC5)cccc4N3CCC2=O)c1` [Compound 8]: the minimal effective dose in data set [3] was greater than 10 mg/kg. For the same molecule, the IC50 in data set [2] came to 2.4 nM.

Take `O=C1CCN2C(=C1C(=O)Nc1ccccc1F)Nc1c(N3CCCCC3)cccc12` [Compound 9]: the minimal effective dose in data set [3] is no more than 3 mg/kg. In data set [2], this molecule displayed a half-inhibitory concentration (IC50) of 69.5 nM.

Take `O=C1CCN2C(=C1C(=O)Nc1c(F)cccc1F)Nc1c(N3CCCCC3)cccc12` [Compound 10, Pyrido[1,2-a]benzimidazole-4-carboxamide, N-(2,6-difluorophenyl)-1,2,3,5-tetrahydro-3-oxo-6-(1-piperidinyl)-]: in data set [3], the minimal effective dose amounted to 3 mg/kg. The ED50 in data set [1] (setting [5]) was determined as 3.64 mg/kg. In data set [2], this molecule came in with an IC50 of 0.41 nM.

As for `COc1ccc(NC(=O)C2=C3Nc4c(N5CCCCC5)cccc4N3CCC2=O)cc1` [Compound 11], the minimal effective dose in data set [3] is greater than 3 mg/kg. For the same molecule, the IC50 in data set [2] came to 34.8 nM.

In turn, `CN1C2=C(C(=O)Nc3ccccc3F)C(=O)CCN2c2cccc(N3CCOCC3)c21` [Compound 12] came in with an IC50 in data set [2] of 0.15 nM.

Turning to `CN1C2=C(C(=O)Nc3ccccc3F)C(=O)CCN2c2cccc(-n3ccnc3)c21` [Compound 13, Pyrido[1,2-a]benzimidazole-4-carboxamide, N-2-fluorophenyl-1,2,3-trihydro-3-oxo5-methyl-6-(1-imidazolyl)-], the minimal effective dose in data set [3] is greater than 3 mg/kg. Further, in data set [2], the IC50 was 0.13 nM.

On to `O=C1CCN2C(=C1C(=O)Nc1ccccc1F)Nc1c(N3CCSCC3)cccc12` [Compound 14], for which the minimal effective dose in data set [3] is roughly 3 mg/kg. In data set [2], this molecule displayed an IC50 of 8.43 nM.

Consider `CN1C2=C(C(=O)Nc3ccccc3F)C(=O)CCN2c2cccc(N3CCSCC3)c21` [Compound 15], for which the minimal effective dose in data set [3] came to 1 mg/kg. This molecule returned an IC50 in data set [2] of 0.23 nM.

With `CN1C2=C(C(=O)Nc3nccs3)C(=O)CCN2c2cccc(-n3ccnc3)c21` [Compound 16], in data set [3], the minimal effective dose was greater than 3 mg/kg. The half-inhibitory concentration (IC50) in data set [2] was determined as 2.12 nM.

For `O=C1CCN2C(=C1C(=O)Nc1nccs1)Nc1c2cccc1-n1ccnc1` [Compound 17], the minimal effective dose in data set [3] is greater than 3 mg/kg. This molecule came in with a concentration for half-maximal inhibition (IC50) in data set [2] of 160 nM.

With `CN1C2=C(C(=O)Nc3ccccc3F)C(=O)CCN2c2cccc(N3CCCCC3)c21` [Compound 18], the minimal effective dose in data set [3] fell in the range of 0.03 to 0.1 mg/kg. In data set [1] (setting [5]), the ED50 turned out to be 0.65 mg/kg. In data set [2], this molecule registered an IC50 of 0.22 nM.

In the case of `O=C1CCN2C(=C1C(=O)Nc1ccccc1F)Nc1c(N3CCC4(CC3)OCCO4)cccc12` [Compound 20, Pyrido[1,2-a]benzimidazole-4-carboxamide, N-2-fluorophenyl-1,2,3,5-tetrahydro-3-oxo-6-[8-(1,4-dioxa-8-azaspiro[4,5]decanyl)]-], the minimal effective dose in data set [3] is 3 mg/kg. Besides, the ED50 in data set [1] (setting [5]) turned out to be 0.83 mg/kg. This molecule also had a half-inhibitory concentration (IC50) in data set [2] of 1.11 nM.

For `CN1C2=C(C(=O)Nc3ccccc3F)C(=O)CCN2c2cccc(N3CCC4(CC3)OCCO4)c21` [Compound 21, Pyrido[1,2-a]benzimidazole-4-carboxamide, N-2-fluorophenyl-1,2,3-trihydro-3-oxo-5-methyl-6-[8-(1,4-dioxa-8-azaspiro[4,6]decanyl)]-], the minimal effective dose in data set [3] is no more than 0.3 mg/kg. Also, the IC50 in data set [2] was 0.13 nM.

Consider `COCC(=O)N1CCN(c2cccc3c2N(C)C2=C(C(=O)Nc4ccccc4F)C(=O)CCN23)CC1` [Compound 22, Pyrido[1,2-a]benzimidazole-4-carboxamide, N-2-fluorophenyl-1,2,3-trihydro-3-oxo-5-methyl-6-[4-(2-methoxyacetyl)-1-piperazinyl]-], for which, in data set [3], the minimal effective dose was greater than 3 mg/kg. Besides, the IC50 in data set [2] was determined as 0.24 nM.

Regarding `O=C1CCN(c2cccc3c2NC2=C(C(=O)Nc4ccccc4F)C(=O)CCN23)CC1` [Compound 23], the minimal effective dose in data set [3] is no more than 3 mg/kg.
